In PubChem BioAssay AID1963977 (Molecular Pharmacology Branch, DTP, NCI, 2024):

System: 624824-186-R-J3-PDC multicell spheroids, viability
Test: Anticancer human tumor 624824-186-R-J3-PDC patient-derived colon adenocarcinoma cell line growth inhibition [PI3K]
Conditions: for IC50: curve of first compound; for viability, T/C: stronger effect = lower value
Excerpt: Combinatorial screen of targeted agents with the PI3K inhibitors inavolisib, alpelisib, duvelisib, and copanlisib in multi-cell type tumor spheroids
A high-throughput screen of multi-cell type tumor spheroids was designed to identify active combinations of targeted small molecules and PI3K pathway inhibitors. Complex spheroids include a stromal component modeled by human endothelial cells (HUVEC) and fibroblasts modeled by human mesenchymal stem cells (MSCs). The concentration ranges selected for each drug and investigational agent were based upon clinically achievable concentrations if the clinical Cmax of the agent was known.
Compounds. The drugs and investigational agents: inavolisib (NSC800729), alpelisib (NSC765974), duvelisib (NSC772469), copanlisib (NSC816437), ipatasertib (NSC767898), afuresertib (NSC778305), talazoparib (NSC767125), sapanisertib (NSC764658), selumetinib (NSC741078), tovorafenib (DAY101, NSC766906), vemurafenib (NSC761431), ravoxertinib (NSC781343), sotorasib (NSC818433), MRTX1133 (NSC 836407), abemaciclib (NSC 768073), palbociclib (NSC758247), venetoclax (NSC 766270), SY5609 (NSC837396), enzalutamide (NSC755605), and darolutamide (NSC825331), were obtained from the National Cancer Institute (NCI) Developmental Therapeutics Program Chemical Repository. The FDA-approved anticancer drug set is available from the NCI Developmental Therapeutics Program. […] The stock solutions were prepared in dimethyl sulfoxide (DMSO, Sigma-Aldrich, St. Louis, MO, cat. D2650) at 800-fold the tested concentration and stored at -70 degrees C prior to their use. All drugs and investigational agents were tested over a range starting from a high concentration at or near the clinical Cmax and decreasing in half-log increments. If the clinical Cmax for an agent had not been determined, the highest concentration tested was 10 microM.
Cell Culture. All cells were maintained in an incubator at 37 degrees C and 5% CO2 with 95% humidity. The PDC lines were cultured according to standard operating procedures established by the NCI PDMR (https://pdmr.cancer.gov/sops/default.htm). All PDCs were thawed and cultured in Matrigel-coated flasks prepared with a working solution of 1X Ham's F-12 nutrient mix, without supplementation (Invitrogen, Waltham, MA, cat. 11765054), 100 U/mL penicillin-streptomycin (Invitrogen, cat. 15140122), and 2.5% Matrigel (Corning Inc., Corning, NY, cat. 354248) for the first three passages. The 354836-022-R-J1-PDC, 475296-252-R-J1-PDC, and 997726-040-R-J2-PDC lines were cultured in 6A media, which includes advanced DMEM/F-12 (Thermo Fisher Scientific, cat. 12634028), 10 mM HEPES (Thermo Fisher Scientific, cat. 15630080), 1X GlutaMAX supplement (Thermo Fisher Scientific, cat. 35050061), 0.1 mg/mL primocin (InvivoGen, San Diego, CA, cat. ant-pm-2), 10% defined fetal bovine serum, heat inactivated (HyClone Laboratories Inc., Logan, UT, cat. SH30070.03HI), 50% L-WRN conditioned media (ATCC, cat. CRL-3276), 1.25 mM N-Acetyl-L-cysteine (Sigma-Aldrich, cat. A9165), 10 mM nicotinamide (Sigma-Aldrich, cat. N0636), 1X B-27 supplement (Thermo Fisher Scientific, cat. 17504044), 1X N-2 supplement (Thermo Fisher Scientific, cat. 17502048), and 10 microM Y-27632 dihydrochloride (Tocris Bioscience, Bristol, United Kingdom, cat. 1254). The 624824-186-R-J2-PDC line was cultured in 6C/Colon 1B media, which includes all 6A media components plus 50 ng/mL human EGF recombinant protein (Thermo Fisher Scientific, cat. PHG0311). […]
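Also: spheroids exposed to agents for seven days before luminescence read.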
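For viability, T/C in this document: luminescent signal used as a stand-in for spheroid viability; percent viability relative to DMSO vehicle control wells taken as 100%.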

CCN1CCN(Cc2ccc(Nc3ncc(F)c(-c4cc(F)c5nc(C)n(C(C)C)c5c4)n3)nc2)CC1 + CC(Nc1ncnc2nc[nH]c12)c1cc2cccc(Cl)c2c(=O)n1-c1ccccc1
IC50 (second compound 0.0316 µM): > 1000 nM | IC50 (second compound 0.1 µM): > 1000 nM | IC50 (second compound 0.316 µM): > 1000 nM | IC50 (second compound 1 µM): > 1000 nM | IC50 (second compound 3.16 µM): > 1000 nM | IC50 (second compound 10 µM): > 1000 nM | viability, T/C (second compound 0.0316 µM, first compound 0.00316 µM): 101% | viability, T/C (second compound 0.0316 µM, first compound 0.01 µM): 94% | viability, T/C (second compound 0.0316 µM, first compound 0.0316 µM): 101% | viability, T/C (second compound 0.0316 µM, first compound 0.1 µM): 110% | viability, T/C (second compound 0.0316 µM, first compound 0.316 µM): 99% | viability, T/C (second compound 0.0316 µM, first compound 1 µM): 109% | viability, T/C (second compound 0.1 µM, first compound 0.00316 µM): 103% | viability, T/C (second compound 0.1 µM, first compound 0.01 µM): 108% | viability, T/C (second compound 0.1 µM, first compound 0.0316 µM): 97.2% | viability, T/C (second compound 0.1 µM, first compound 0.1 µM): 106% | viability, T/C (second compound 0.1 µM, first compound 0.316 µM): 111% | viability, T/C (second compound 0.1 µM, first compound 1 µM): 97.6% | viability, T/C (second compound 0.316 µM, first compound 0.00316 µM): 105% | viability, T/C (second compound 0.316 µM, first compound 0.01 µM): 110% | viability, T/C (second compound 0.316 µM, first compound 0.0316 µM): 96.4% | viability, T/C (second compound 0.316 µM, first compound 0.1 µM): 111% | viability, T/C (second compound 0.316 µM, first compound 0.316 µM): 99.8% | viability, T/C (second compound 0.316 µM, first compound 1 µM): 99.7% | viability, T/C (second compound 1 µM, first compound 0.00316 µM): 93.1% | viability, T/C (second compound 1 µM, first compound 0.01 µM): 103% | viability, T/C (second compound 1 µM, first compound 0.0316 µM): 104% | viability, T/C (second compound 1 µM, first compound 0.1 µM): 94.3% | viability, T/C (second compound 1 µM, first compound 0.316 µM): 92.2% | viability, T/C (second compound 1 µM, first compound 1 µM): 101% | viability, T/C (second compound 3.16 µM, first compound 0.00316 µM): 106% | viability, T/C (second compound 3.16 µM, first compound 0.01 µM): 100% | viability, T/C (second compound 3.16 µM, first compound 0.0316 µM): 102% | viability, T/C (second compound 3.16 µM, first compound 0.1 µM): 90.8% | viability, T/C (second compound 3.16 µM, first compound 0.316 µM): 88.1% | viability, T/C (second compound 3.16 µM, first compound 1 µM): 81.8% | viability, T/C (second compound 10 µM, first compound 0.00316 µM): 96.6% | viability, T/C (second compound 10 µM, first compound 0.01 µM): 96.7% | viability, T/C (second compound 10 µM, first compound 0.0316 µM): 87% | viability, T/C (second compound 10 µM, first compound 0.1 µM): 78.1% | viability, T/C (second compound 10 µM, first compound 0.316 µM): 65.3% | viability, T/C (second compound 10 µM, first compound 1 µM): 67%
